One test has as its target T1, Substance-K receptor (Homo sapiens, UniProt P21452). Note: in other assays of this panel Not Active means under 50% inhibition at 10 µM.
T1 sequence (P21452 whole entry): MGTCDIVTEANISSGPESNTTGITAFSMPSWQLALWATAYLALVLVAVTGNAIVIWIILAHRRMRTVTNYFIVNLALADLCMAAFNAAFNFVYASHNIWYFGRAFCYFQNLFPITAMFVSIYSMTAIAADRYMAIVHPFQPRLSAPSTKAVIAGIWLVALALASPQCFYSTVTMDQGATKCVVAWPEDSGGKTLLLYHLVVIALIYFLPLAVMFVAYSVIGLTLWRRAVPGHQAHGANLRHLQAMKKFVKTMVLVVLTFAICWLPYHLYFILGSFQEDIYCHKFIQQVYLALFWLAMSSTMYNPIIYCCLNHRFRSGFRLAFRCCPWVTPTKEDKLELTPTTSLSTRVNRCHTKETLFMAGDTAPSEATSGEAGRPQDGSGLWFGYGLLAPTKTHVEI
The class given is cell membranes, CHO, Membrane. The following applies: cho.

The target in test [1] is Epidermal growth factor receptor (Homo sapiens, UniProt P00533). The test is described as follows: DRUGMATRIX: Protein Tyrosine Kinase, EGF Receptor enzyme inhibition (substrate: Poly(Glu:Tyr)). The class given is cell-based, Insect cells. The following applies: Not Active = under 50% inhibition at 10 µM.
The target in test [2] is T2, Alpha-1D adrenergic receptor (Homo sapiens, UniProt P25100). Note: in other assays of this panel Not Active means under 50% inhibition at 10 µM.
T2 sequence (P25100 whole entry): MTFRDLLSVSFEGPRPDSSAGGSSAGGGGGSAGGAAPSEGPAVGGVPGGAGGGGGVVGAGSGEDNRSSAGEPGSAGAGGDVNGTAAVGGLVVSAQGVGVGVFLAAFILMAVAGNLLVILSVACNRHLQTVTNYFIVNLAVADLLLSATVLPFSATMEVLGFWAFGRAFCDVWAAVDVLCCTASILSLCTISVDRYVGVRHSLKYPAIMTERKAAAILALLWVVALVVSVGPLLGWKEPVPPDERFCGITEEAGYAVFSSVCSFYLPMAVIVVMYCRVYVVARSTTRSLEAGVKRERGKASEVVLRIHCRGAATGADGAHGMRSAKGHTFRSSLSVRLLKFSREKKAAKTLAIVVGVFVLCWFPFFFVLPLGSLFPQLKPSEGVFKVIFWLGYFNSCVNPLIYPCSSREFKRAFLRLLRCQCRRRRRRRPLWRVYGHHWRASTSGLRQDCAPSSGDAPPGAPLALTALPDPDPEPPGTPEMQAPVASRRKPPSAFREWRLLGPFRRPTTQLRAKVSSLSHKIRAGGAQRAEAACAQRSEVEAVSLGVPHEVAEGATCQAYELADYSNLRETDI
The test is classed as cell membranes, HEK293, Membrane.

Usually IC50 stands for the concentration at which inhibition is half-maximal. For orientation: Ki means a measure of affinity in units of concentration, obtained from inhibition or displacement.

Epidermal growth factor receptor, sequence (P00533 whole entry): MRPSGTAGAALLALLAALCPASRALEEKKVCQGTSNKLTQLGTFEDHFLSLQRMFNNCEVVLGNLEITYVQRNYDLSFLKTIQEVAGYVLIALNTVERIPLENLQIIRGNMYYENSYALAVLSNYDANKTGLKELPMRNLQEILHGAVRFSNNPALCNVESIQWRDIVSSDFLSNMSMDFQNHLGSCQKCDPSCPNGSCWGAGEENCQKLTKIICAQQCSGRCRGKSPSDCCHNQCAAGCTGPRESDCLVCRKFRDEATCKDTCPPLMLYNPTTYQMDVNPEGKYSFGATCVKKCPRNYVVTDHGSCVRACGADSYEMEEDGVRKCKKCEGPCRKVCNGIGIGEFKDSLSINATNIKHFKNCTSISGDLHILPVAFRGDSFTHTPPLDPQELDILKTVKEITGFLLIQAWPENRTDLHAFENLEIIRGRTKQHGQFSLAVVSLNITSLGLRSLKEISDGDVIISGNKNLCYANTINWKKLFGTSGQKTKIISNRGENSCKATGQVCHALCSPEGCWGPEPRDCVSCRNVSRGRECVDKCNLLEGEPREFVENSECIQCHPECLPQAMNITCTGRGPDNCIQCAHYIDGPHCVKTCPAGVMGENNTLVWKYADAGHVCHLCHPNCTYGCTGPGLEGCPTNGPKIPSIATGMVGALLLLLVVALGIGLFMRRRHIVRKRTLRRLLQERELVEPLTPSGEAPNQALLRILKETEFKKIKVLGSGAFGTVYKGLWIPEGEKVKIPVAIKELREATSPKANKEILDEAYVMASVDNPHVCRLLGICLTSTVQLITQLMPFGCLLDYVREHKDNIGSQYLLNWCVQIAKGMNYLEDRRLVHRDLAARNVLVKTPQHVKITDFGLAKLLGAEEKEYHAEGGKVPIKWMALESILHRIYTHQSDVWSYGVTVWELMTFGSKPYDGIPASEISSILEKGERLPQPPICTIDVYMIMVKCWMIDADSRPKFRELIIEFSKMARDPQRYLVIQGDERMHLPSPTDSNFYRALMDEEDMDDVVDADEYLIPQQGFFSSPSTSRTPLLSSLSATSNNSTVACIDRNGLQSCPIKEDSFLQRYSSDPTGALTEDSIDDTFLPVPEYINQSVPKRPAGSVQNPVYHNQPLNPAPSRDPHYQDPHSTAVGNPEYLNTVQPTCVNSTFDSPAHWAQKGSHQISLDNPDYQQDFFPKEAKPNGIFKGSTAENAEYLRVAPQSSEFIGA

On to `COc1ccc(C2C(=O)c3ccccc3C2=O)cc1` [ANISINDIONE], for which the IC50 entry (at Substance-K receptor; in test [1] (insect cells); in test [2] (hek293)) was “Not Active” throughout.
As for `CC[C@H](C)[C@H]1O[C@]2(C=C[C@@H]1C)C[C@@H]1C[C@@H](C/C=C(\C)[C@@H](O[C@H]3C[C@H](OC)[C@@H](O[C@H]4C[C@H](OC)[C@@H](O)[C@H](C)O4)[C@H](C)O3)[C@@H](C)/C=C/C=C3\CO[C@@H]4[C@H](O)C(C)=C[C@@H](C(=O)O1)[C@]34O)O2.CO[C@H]1C[C@H](O[C@H]2[C@H](C)O[C@@H](O[C@@H]3/C(C)=C/C[C@@H]4C[C@@H](C[C@]5(C=C[C@H](C)[C@@H](C(C)C)O5)O4)OC(=O)[C@@H]4C=C(C)[C@@H](O)[C@H]5OC/C(=C\C=C\[C@@H]3C)[C@]54O)C[C@@H]2OC)O[C@@H](C)[C@@H]1O` [ABAMECTIN], the IC50 result (against Substance-K receptor; in test [1] (insect cells); in test [2] (hek293)) was “Not Active” throughout.
For the compound `CN/C(=N\CCSCc1nc[nH]c1C)NC#N` [CIMETIDINE], the IC50 entry (on Substance-K receptor; in test [1] (insect cells); in test [2] (hek293)) was “Not Active” in each case.
Turning to `CCCNCC(O)COc1ccccc1C(=O)CCc1ccccc1` (configuration not stated) [PROPAFENONE], the IC50 result (at Substance-K receptor; in test [1] (insect cells); in test [2] (hek293)) was “Not Active” each time.
With `COC(=O)Nc1nc2ccc([S+]([O-])c3ccccc3)cc2[nH]1` (configuration not stated) [OXFENDAZOLE], the IC50 entry (against Substance-K receptor; in test [1] (insect cells); in test [2] (hek293)) was “Not Active” each time.
For the compound `CCC1(C)CC(=O)NC1=O` (configuration not stated) [ETHOSUXIMIDE], the IC50 result (at Substance-K receptor; in test [1] (insect cells); in test [2] (hek293)) was “Not Active” each time.
Regarding `Brc1c(NC2=NCCN2)ccc2nccnc12` [BRIMONIDINE], the IC50 result against Substance-K receptor was “Not Active”; in test [1] (insect cells) it was “Not Active”; in test [2] (read-out: IC50) it was 1.72 µM. In test [2] (read-out: Ki), the Ki amounted to 0.846 µM.
Take `CC[C@H]1CN2CCc3cc(OC)c(OC)cc3[C@@H]2C[C@@H]1C[C@H]1NCCc2cc(OC)c(OC)cc21` [EMETINE]: the half-maximal inhibitory concentration (IC50) entry (against Substance-K receptor; in test [1] (insect cells); in test [2] (hek293)) was “Not Active” in each case.
For `COc1cc([C@@H]2c3cc4c(cc3[C@@H](O[C@@H]3O[C@@H]5CO[C@@H](C)O[C@H]5[C@H](O)[C@H]3O)[C@H]3COC(=O)[C@H]23)OCO4)cc(OC)c1O` [ETOPOSIDE], the IC50 entry (against Substance-K receptor; in test [1] (insect cells); in test [2] (hek293)) was “Not Active” in each case.
Turning to `COC(=O)CCc1ccc(OCC(O)CNC(C)C)cc1` (configuration not stated) [ESMOLOL], the IC50 entry (against Substance-K receptor; in test [1] (insect cells); in test [2] (hek293)) was “Not Active” throughout.
As for `COc1ccc(C(=O)N2CCCC2=O)cc1`, the IC50 result (against Substance-K receptor; in test [1] (insect cells); in test [2] (hek293)) was “Not Active” in each case.
For `O=C(O)CCNC(=O)c1ccccc1` [BETAMIPRON], the IC50 entry (at Substance-K receptor; in test [1] (insect cells); in test [2] (hek293)) was “Not Active” in each case.
Regarding `COc1cc(N)c(Cl)cc1C(=O)NC1CCN(CCCOc2ccc(F)cc2)CC1OC` (configuration not stated) [CISAPRIDE], the IC50 result was “Not Active” against Substance-K receptor, “Not Active” in test [1] (insect cells) and 0.189 µM in test [2] (read-out: IC50). The Ki in test [2] (read-out: Ki) came to 0.093 µM.
On to `N=C(N)NC(=O)Cc1c(Cl)cccc1Cl` [GUANFACINE], for which the IC50 result (on Substance-K receptor; in test [1] (insect cells); in test [2] (hek293)) was “Not Active” each time.
For the compound `NC(=O)C[S+]([O-])C(c1ccccc1)c1ccccc1` (configuration not stated) [MODAFINIL], the IC50 result (against Substance-K receptor; in test [1] (insect cells); in test [2] (hek293)) was “Not Active” throughout.
For `CC(C)(C)NC(=O)[C@H]1CC[C@H]2[C@@H]3CC[C@H]4NC(=O)C=C[C@]4(C)[C@H]3CC[C@]12C` [FINASTERIDE], the IC50 result (against Substance-K receptor; in test [1] (insect cells); in test [2] (hek293)) was “Not Active” each time.
Take `Oc1cccc(O)c1O` [PYROGALLOL]: the IC50 result against Substance-K receptor was “Not Active”; in test [1] (read-out: IC50) it was 1.23 µM; in test [2] (hek293) it was “Not Active”.
For the compound `COc1cc2nc(N3CCN(C(=O)c4ccco4)CC3)nc(N)c2cc1OC` [PRAZOSIN], the IC50 entry (against Substance-K receptor; in test [1] (insect cells)) was “Not Active” in each case.
In the case of `NNc1nncc2ccccc12` [HYDRALAZINE], the IC50 result (at Substance-K receptor; in test [1] (insect cells); in test [2] (hek293)) was “Not Active” each time.
As to `C[C@]12C=CC(=O)C=C1CC[C@@H]1[C@@H]2[C@@H](O)C[C@@]2(C)[C@H]1CC[C@]2(O)C(=O)CO` [PREDNISOLONE], the IC50 result (against Substance-K receptor; in test [1] (insect cells); in test [2] (hek293)) was “Not Active” in each case.
For `NCCCC(O)(P(=O)(O)O)P(=O)(O)O` [ALENDRONIC ACID], the IC50 result (against Substance-K receptor; in test [1] (insect cells); in test [2] (hek293)) was “Not Active” each time.
As to `O=C1O[C@H]([C@@H](O)CO)C(O)=C1O` [ASCORBIC ACID], the 50% inhibitory concentration (IC50) result (at Substance-K receptor; in test [1] (insect cells); in test [2] (hek293)) was “Not Active” in each case.
Consider `C[n+]1ccccc1/C=N/O.[Cl-]` [PRALIDOXIME CHLORIDE], for which the IC50 entry (against Substance-K receptor; in test [1] (insect cells); in test [2] (hek293)) was “Not Active” throughout.
On to `COc1ccc2[nH]cc(CCNC(C)=O)c2c1` [MELATONIN], for which the IC50 result (against Substance-K receptor; in test [1] (insect cells); in test [2] (hek293)) was “Not Active” throughout.
Consider `O=C/C=C/c1ccccc1`, for which the IC50 entry (against Substance-K receptor; in test [1] (insect cells); in test [2] (hek293)) was “Not Active” in each case.
`CN(C)CC[C@@H](c1ccc(Cl)cc1)c1ccccn1` [DEXCHLORPHENIRAMINE]: the figures for the IC50 entry (against Substance-K receptor; in test [1] (insect cells); in test [2] (read-out: IC50)) were “Not Active”, “Not Active” and 33.7 µM, respectively. Further, the Ki in test [2] (read-out: Ki) stood at 16.6 µM.
As for `COc1ccc2cc3[n+](cc2c1OC)CCc1cc2c(cc1-3)OCO2.[Cl-]` [BERBERINE CHLORIDE], the IC50 entry (against Substance-K receptor; in test [1] (insect cells); in test [2] (hek293)) was “Not Active” in each case.
In the case of `CC1(C)S[C@@H]2[C@H](NC(=O)[C@H](N)c3ccccc3)C(=O)N2[C@H]1C(=O)O` [AMPICILLIN], the IC50 entry (against Substance-K receptor; in test [1] (insect cells); in test [2] (hek293)) was “Not Active” in each case.
As to `Cn1c(=O)c2c(ncn2CC(O)CO)n(C)c1=O` (configuration not stated) [DYPHYLLINE], the IC50 entry (at Substance-K receptor; in test [1] (insect cells); in test [2] (hek293)) was “Not Active” each time.
Regarding `Cn1c(=O)c2[nH]cnc2n(C)c1=O.Cn1c(=O)c2[nH]cnc2n(C)c1=O.NCCN` [AMINOPHYLLINE], the IC50 entry (against Substance-K receptor; in test [1] (insect cells); in test [2] (hek293)) was “Not Active” throughout.
Regarding `C[C@H]1O[C@@H](n2cc(F)c(=O)[nH]c2=O)[C@H](O)[C@@H]1O` [DOXIFLURIDINE], the IC50 result (on Substance-K receptor; in test [1] (insect cells); in test [2] (hek293)) was “Not Active” in each case.
Turning to `C#C[C@]1(OC(C)=O)CC[C@H]2[C@@H]3CCC4=C[C@@H](OC(C)=O)CC[C@@H]4[C@H]3CC[C@@]21C` [ETHYNODIOL DIACETATE], the IC50 entry (at Substance-K receptor; in test [1] (insect cells); in test [2] (hek293)) was “Not Active” throughout.
Turning to `CCCOc1ccc(C(=O)OCCN(CC)CC)cc1N` [PROPARACAINE], the IC50 result (against Substance-K receptor; in test [1] (insect cells); in test [2] (hek293)) was “Not Active” in each case.
Regarding `O=C(O)c1cccnc1Nc1cccc(C(F)(F)F)c1` [NIFLUMIC ACID], the IC50 result (at Substance-K receptor; in test [1] (insect cells); in test [2] (hek293)) was “Not Active” throughout.
In the case of `CN1[C@@H]2CC[C@H]1C[C@@H](OC(=O)C(CO)c1ccccc1)C2` (some centres not stated) [ATROPINE], the IC50 entry was “Not Active” at Substance-K receptor, “Not Active” in test [1] (insect cells) and 1.35 µM in test [2] (read-out: IC50). Besides, the Ki in test [2] came out at 0.666 µM.
`CC(C(=O)O)c1cccc(Oc2ccccc2)c1` (configuration not stated) [FENOPROFEN]: the IC50 entry (against Substance-K receptor; in test [1] (insect cells); in test [2] (hek293)) was “Not Active” throughout.
Consider `C[C@@H]1C[C@H]2[C@@H]3CCC4=CC(=O)C=C[C@]4(C)[C@@]3(F)[C@@H](O)C[C@]2(C)[C@@]1(O)C(=O)CO` [DEXAMETHASONE], for which the IC50 result (at Substance-K receptor; in test [1] (insect cells); in test [2] (hek293)) was “Not Active” each time.
For the compound `Cc1cc2c(OCC(CNC(C)(C)C)OC(=O)c3ccccc3)cccc2[nH]1` (configuration not stated) [BOPINDOLOL], the IC50 result (against Substance-K receptor; in test [1] (insect cells); in test [2] (hek293)) was “Not Active” each time.

The values are drawn from ChEMBL document CHEMBL1909046, “DrugMatrix in vitro pharmacology data”.
